Assay results from US20130259807A1, “CELL CULTURE SCREEN FOR AGENTS THAT CONTROL ADIPOGENESIS AND MYOFIBROBLAST DIFFERENTIATION” (THE REGENTS OF THE UNIVERSITY OF CALIFORNIA, priority 2010, published 2013).

Tested on: rat mesenchymal stem cells
Experiment: Culture screening adipogenesis assay (lipid accumulation, Oil Red O / BODIPY)
Format: cell-based
Conditions: insulin in the progressing medium, positive control set as 100%
Description: To prepare adipogenesis initiation/priming medium, a IBMX standard solution ([…]) is diluted 1:1000 and a dexamethasone standard solution (1 μM dexamethasone standard solution (in DMSO)) is diluted 1:10,000 in DMEM+10% FCS. A typical cocktail of antibiotics can be added to restrict microbe growth. This initiation medium can be stored for up to 6 weeks at 4° C.
To prepare positive control progression medium, a standard insulin solution (10 μg/ml insulin) is diluted 1:1000 in DMEM+10% FCS. Antibiotics of choice are added to control growth of microbes. This control progression medium can be stored for up to 6 weeks at 4° C.
To prepare experimental/test (e.g., RHAMM blocking or other experimental adipogenic promoting reagent) progression medium, test agents are provided in a standard solution (e.g. 0.001-10 μg RHAMM antibody, peptide mimetic(s), or other test agent(s)). The test agent solution is diluted to the desired concentration (e.g. 1 ng-10 μg RHAMM peptide) in DMEM+10% FCS. […]
Cells for the adipogenesis screen can be plated as follows: The cells are trypsinized and then resuspended in 1 ml DMEM+10% CS to neutralize the trypsin. The cells are then counted. […]
The dye can be extracted with methanol:ethanol (1:1) mixture and read oil red O at 520 nm using an ELISA plate reader or for BODIPY® using a fluorometer that detects FITC.

Substance: insulin
- Extent of lipid accumulation (Oil Red O at 520 nm): 100%
